Reference: patent US20060069132A1, “Azolecarboxamide herbicides” (priority 2004, published 2006)

Key:
giant foxtail [1] = assay: Test A pre-/postemergence herbicide test; assay type: in vivo, Setaria faberi
Method in brief: (§1)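 Seeds sown in sandy loam received a preemergence directed soil spray of compound in non-phytotoxic solvent with surfactant; postemergence plants (2–10 cm, one- to two-leaf stage) were sprayed to runoff at the same time. After ~10 days in greenhouse, injury was rated visually versus untreated controls (0 = no effect, 100 = complete control).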

velvetleaf = assay: Test A pre-/postemergence herbicide test; assay type: in vivo, Abutilon theophrasti
Method in brief: as §1

yellow nutsedge = assay: Test C pre-/postemergence herbicide test; assay type: in vivo, Cyperus esculentus; details: for Nutsedge, Yellow plant response rating: 500 g ai/ha
Method in brief: (§2)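 Seeds were planted and sprayed preemergence with test chemicals in a non-phytotoxic solvent mixture containing surfactant; postemergence treatments went onto plants 2 to 18 cm tall (1- to 4-leaf stage). After 12 to 14 days in a greenhouse, injury was rated visually against untreated controls on a 0–100 scale.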

giant foxtail [2] = assay: Test C pre-/postemergence herbicide test; assay type: in vivo, Setaria faberi; details: for Foxtail, Giant plant response rating: 500 g ai/ha
Method in brief: as §2

large crabgrass = assay: Test A pre-/postemergence herbicide test; assay type: in vivo, Digitaria sanguinalis
Method in brief: as §1

barnyardgrass = assay: Test C flooded paddy test; assay type: in vivo, Echinochloa crus-galli
Method in brief: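 Scoring by eye, 12–14 days post-treatment, greenhouse-held plants vs. controls; 0 no effect, 100 complete control. Sprayed at 1–4 leaves (2–18 cm); paddy barnyardgrass at 2 leaves, flooded.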

woolly cupgrass = assay: Test C pre-/postemergence herbicide test; assay type: in vivo, Eriochloa villosa; details: for Cupgrass, Woolly plant response rating: 500 g ai/ha
Method in brief: as §2

soybean = assay: Test C pre-/postemergence herbicide test; assay type: in vivo, Glycine max; details: for Soybean plant response rating: 500 g ai/ha
Method in brief: as §2

ducksalad = assay: Test C flooded paddy test; assay type: in vivo, Heteranthera limosa
morningglory = assay: Test C pre-/postemergence herbicide test; assay type: in vivo, Ipomoea coccinea; design: key to Plant response rating, Morningglory: 0 = no effect, 100 = complete control; details: for Morningglory plant response rating: 500 g ai/ha
Method in brief: as §2

[3] = Postemergence, 500 g ai/ha, 0 to 100 scale, 0 no effect, 100 complete control
[4] = Postemergence, 2000 g ai/ha, 0 to 100 scale, 0 no effect, 100 complete control
[5] = Preemergence, 500 g ai/ha, visual rating, 0 to 100 scale (0 no effect, 100 complete control)
[6] = Preemergence, 2000 g ai/ha, visual rating, 0 to 100 scale (0 no effect, 100 complete control)
[7] = preemergence, 500 g ai/ha, visual injury, 0 to 100 scale (0 no effect, 100 complete control)
[8] = 125 g ai/ha, scale 0 (no effect) to 100 (complete control), visual, 12 to 14 days, preemergence
[9] = Postemergence, 250 g ai/ha, scale 0 to 100, 0 no effect, 100 complete control
[10] = Preemergence, scale 0 to 100, 0 no effect, 100 complete control
[11] = postemergence, 125 g ai/ha, scale 0 to 100
[12] = postemergence, 62 g ai/ha, scale 0 to 100
[13] = 250 g ai/ha, scale 0 to 100 (0 no effect, 100 complete control), visual, 12 to 14 days, preemergence
[14] = 62 g ai/ha, scale 0 to 100 (0 no effect, 100 complete control)
[15] = 125 g ai/ha, scale of 0 to 100, 0 is no effect, 100 is complete control
[16] = 125 g ai/ha, scale 0 to 100 (0 no effect, 100 complete control)
[17] = 250 g ai/ha, scale of 0 to 100, 0 is no effect, 100 is complete control
[18] = 500 g ai/ha, visual rating after 12 to 14 days, scale 0 to 100 (0 no effect, 100 complete control)

C#CCNC(=O)c1cccc(NC(=O)c2cc(C(C)(C)C)nn2CC)n1 [Compound 147]
Foxtail, Giant plant response rating (giant foxtail [1]; [3]): 45 | Plant response rating, Foxtail, Giant (giant foxtail [1]; [4]): 90 | Foxtail, Giant plant response rating (giant foxtail [1]; [5]): 60 | Foxtail, Giant plant response rating (giant foxtail [1]; [6]): 95 | Velvetleaf plant response rating (velvetleaf; [3]): 30 | Plant response rating, Velvetleaf (velvetleaf; [4]): 50 | Velvetleaf plant response rating (velvetleaf; [6]): 85 | Velvetleaf plant response rating (velvetleaf; [7]): 25 | Plant response rating (0 = no effect, 100 = complete control), Nutsedge, Yellow (yellow nutsedge; 62 g ai/ha, preemergence): 0 | Plant response rating, Nutsedge, Yellow (yellow nutsedge; [8]): 0 | Nutsedge, Yellow plant response rating (yellow nutsedge; Postemergence, scale 0 to 100): 0 | Plant response rating, Nutsedge, Yellow (yellow nutsedge; [9]): 0 | Nutsedge, Yellow plant response rating (yellow nutsedge; [10]): 0 | Plant response rating, Nutsedge, Yellow (yellow nutsedge; [11]): 0 | Plant response rating, Nutsedge, Yellow (yellow nutsedge; [12]): 0 | Plant response rating (0 = no effect, 100 = complete control), Foxtail, Giant (giant foxtail [2]; 62 g ai/ha, preemergence): 0 | Plant response rating, Foxtail, Giant (giant foxtail [2]; [8]): 0 | Plant response rating, Foxtail, Giant (giant foxtail [2]; [13]): 30 | Foxtail, Giant plant response rating (giant foxtail [2]; Postemergence, scale 0 to 100): 45 | Plant response rating, Foxtail, Giant (giant foxtail [2]; [9]): 0 | Foxtail, Giant plant response rating (giant foxtail [2]; [10]): 100 | Plant response rating, Foxtail, Giant (giant foxtail [2]; [11]): 0 | Plant response rating, Foxtail, Giant (giant foxtail [2]; [12]): 0 | Crabgrass, Large plant response rating (large crabgrass; [3]): 40 | Plant response rating, Crabgrass, Large (large crabgrass; [4]): 90 | Crabgrass, Large plant response rating (large crabgrass; [5]): 85 | Crabgrass, Large plant response rating (large crabgrass; [6]): 90 | Barnyardgrass plant response rating (barnyardgrass; 16 g ai/ha, scale 0 to 100): 0 | Barnyardgrass plant response rating (barnyardgrass; 31 g ai/ha, scale 0 to 100): 0 | Barnyardgrass plant response rating (barnyardgrass; [14]): 0 | Barnyardgrass plant response rating (barnyardgrass; [15]): 0 | Plant response rating (0 = no effect, 100 = complete control), Cupgrass, Woolly (woolly cupgrass; 62 g ai/ha, preemergence): 0 | Plant response rating, Cupgrass, Woolly (woolly cupgrass; [8]): 10 | Plant response rating, Cupgrass, Woolly (woolly cupgrass; [13]): 10 | Cupgrass, Woolly plant response rating (woolly cupgrass; Postemergence, scale 0 to 100): 30 | Plant response rating, Cupgrass, Woolly (woolly cupgrass; [9]): 10 | Cupgrass, Woolly plant response rating (woolly cupgrass; [10]): 60 | Plant response rating, Cupgrass, Woolly (woolly cupgrass; [11]): 0 | Plant response rating, Cupgrass, Woolly (woolly cupgrass; [12]): 0 | Plant response rating (0 = no effect, 100 = complete control), Soybean (soybean; 62 g ai/ha, preemergence): 0 | Plant response rating, Soybean (soybean; [8]): 0 | Soybean plant response rating (soybean; Postemergence, scale 0 to 100): 70 | Plant response rating, Soybean (soybean; [9]): 40 | Soybean plant response rating (soybean; [10]): 5 | Plant response rating, Soybean (soybean; [11]): 35 | Plant response rating, Soybean (soybean; [12]): 10 | Ducksalad plant response rating (ducksalad; 16 g ai/ha, scale 0 to 100): 0 | Ducksalad plant response rating (ducksalad; 31 g ai/ha, scale 0 to 100): 0 | Ducksalad plant response rating (ducksalad; [14]): 0 | Ducksalad plant response rating (ducksalad; [16]): 0 | Plant response rating (0 = no effect, 100 = complete control), Morningglory (morningglory; 62 g ai/ha, preemergence): 0 | Plant response rating, Morningglory (morningglory; [8]): 0 | Morningglory plant response rating (morningglory; Postemergence, scale 0 to 100): 0 | Plant response rating, Morningglory (morningglory; [9]): 0 | Morningglory plant response rating (morningglory; [10]): 0 | Plant response rating, Morningglory (morningglory; [11]): 0 | Plant response rating, Morningglory (morningglory; [12]): 0

CCNC(=O)c1cccc(NC(=O)c2cc(C(C)(C)C)nn2CC)n1 [Compound 144]
Foxtail, Giant plant response rating (giant foxtail [1]; [3]): 80 | Plant response rating, Foxtail, Giant (giant foxtail [1]; [4]): 100 | Foxtail, Giant plant response rating (giant foxtail [1]; [5]): 90 | Foxtail, Giant plant response rating (giant foxtail [1]; [6]): 100 | Velvetleaf plant response rating (velvetleaf; [3]): 55 | Plant response rating, Velvetleaf (velvetleaf; [4]): 75 | Velvetleaf plant response rating (velvetleaf; [6]): 90 | Velvetleaf plant response rating (velvetleaf; [7]): 70 | Plant response rating (0 = no effect, 100 = complete control), Nutsedge, Yellow (yellow nutsedge; 62 g ai/ha, preemergence): 0 | Plant response rating, Nutsedge, Yellow (yellow nutsedge; [8]): 0 | Nutsedge, Yellow plant response rating (yellow nutsedge; Postemergence, scale 0 to 100): 0 | Plant response rating, Nutsedge, Yellow (yellow nutsedge; [9]): 0 | Nutsedge, Yellow plant response rating (yellow nutsedge; [10]): 40 | Plant response rating, Nutsedge, Yellow (yellow nutsedge; [11]): 0 | Plant response rating, Nutsedge, Yellow (yellow nutsedge; [12]): 0 | Plant response rating (0 = no effect, 100 = complete control), Foxtail, Giant (giant foxtail [2]; 62 g ai/ha, preemergence): 40 | Plant response rating, Foxtail, Giant (giant foxtail [2]; [8]): 70 | Plant response rating, Foxtail, Giant (giant foxtail [2]; [13]): 100 | Foxtail, Giant plant response rating (giant foxtail [2]; Postemergence, scale 0 to 100): 70 | Plant response rating, Foxtail, Giant (giant foxtail [2]; [9]): 50 | Foxtail, Giant plant response rating (giant foxtail [2]; [10]): 100 | Plant response rating, Foxtail, Giant (giant foxtail [2]; [11]): 10 | Plant response rating, Foxtail, Giant (giant foxtail [2]; [12]): 0 | Crabgrass, Large plant response rating (large crabgrass; [3]): 55 | Plant response rating, Crabgrass, Large (large crabgrass; [4]): 90 | Crabgrass, Large plant response rating (large crabgrass; [5]): 90 | Crabgrass, Large plant response rating (large crabgrass; [6]): 90 | Barnyardgrass plant response rating (barnyardgrass; [14]): 20 | Barnyardgrass plant response rating (barnyardgrass; [15]): 20 | Barnyardgrass plant response rating (barnyardgrass; [17]): 50 | Plant response rating, Barnyardgrass (barnyardgrass; [18]): 60 | Plant response rating (0 = no effect, 100 = complete control), Cupgrass, Woolly (woolly cupgrass; 62 g ai/ha, preemergence): 0 | Plant response rating, Cupgrass, Woolly (woolly cupgrass; [8]): 5 | Plant response rating, Cupgrass, Woolly (woolly cupgrass; [13]): 5 | Cupgrass, Woolly plant response rating (woolly cupgrass; Postemergence, scale 0 to 100): 50 | Plant response rating, Cupgrass, Woolly (woolly cupgrass; [9]): 50 | Cupgrass, Woolly plant response rating (woolly cupgrass; [10]): 70 | Plant response rating, Cupgrass, Woolly (woolly cupgrass; [11]): 30 | Plant response rating, Cupgrass, Woolly (woolly cupgrass; [12]): 0 | Plant response rating (0 = no effect, 100 = complete control), Soybean (soybean; 62 g ai/ha, preemergence): 0 | Plant response rating, Soybean (soybean; [8]): 40 | Soybean plant response rating (soybean; Postemergence, scale 0 to 100): 90 | Plant response rating, Soybean (soybean; [9]): 90 | Soybean plant response rating (soybean; [10]): 80 | Plant response rating, Soybean (soybean; [11]): 85 | Plant response rating, Soybean (soybean; [12]): 70 | Ducksalad plant response rating (ducksalad; [14]): 20 | Ducksalad plant response rating (ducksalad; [16]): 50 | Ducksalad plant response rating (ducksalad; [17]): 70 | Plant response rating, Ducksalad (ducksalad; [18]): 80 | Plant response rating (0 = no effect, 100 = complete control), Morningglory (morningglory; 62 g ai/ha, preemergence): 0 | Plant response rating, Morningglory (morningglory; [8]): 30 | Morningglory plant response rating (morningglory; Postemergence, scale 0 to 100): 80 | Plant response rating, Morningglory (morningglory; [9]): 20 | Morningglory plant response rating (morningglory; [10]): 90 | Plant response rating, Morningglory (morningglory; [11]): 0 | Plant response rating, Morningglory (morningglory; [12]): 0
